Experimental data reported in patent US4105659A, “1,2,3,4,5,6-Hexahydro-2,6-methano-3-benzazocines” (Sterling Drug Inc., priority 1964, dated 1978).
Converted amounts (≈) assume the structure as drawn.

How the values were obtained:
[1] = Solubility, pH of solution and precipitation on pH adjustment or dilution; type: physicochemical
Description: A. A mixture of 8.7 g. of racemic cis 1,2,3,4,5,6-hexahydro-6,11-dimethyl-8-hydroxy-2,6-methano-3-benzazocine (which is also known as racemic cis 2'-hydroxy-5,9-dimethyl-6,7-benzomorphan), 6.0 g of 1-bromo-3-methyl-2-butene, 5.0 g. of sodium bicarbonate, and 125 ml. of N,N-dimethylformamide was stirred and refluxed for approximately 41/2 hours. The reaction mixture was then filtered, and the solid on the filter was washed with ethanol. The filtrate and the wash liquor were combined, concentrated under reduced pressure, and then extracted with chloroform. The chloroform extract was concentrated under reduced pressure to yield a syrup which weighed 15.8 g. This syrup was dissolved in 120 ml. of diethyl ether and the resulting solution was filtered to remove approximately one-half gram of a brown amorphous solid. The filtrate was extracted with a mixture of 5 ml. of concentrated hydrochloric acid and 20 ml. of water. To the extract there was added 5 ml. of concentrated ammonium hydroxide solution and ice. A pale tan syrup separated from solution and after stirring, this syrup solidified. The resulting pale tan solid was collected and dried; it weighed 10.6 g. After two recrystallizations from a mixture of methyl alcohol and water, with charcoaling, this solid weighed 8.2 g. and melted at 145°-147° C. The product thus obtained was racemic cis 1,2,3,4,5,6-hexahydro-3-(3-methyl-2-butenyl)-6,11-dimethyl-8-hydroxy-2,6-methano-3-benzazocine (Formula II: Y = --CH2 --CH=C(CH3)2; R^3 = --H), having the molecular formula C19 H27 NO. This product was soluble in a mixture of 0.35 ml. of N/2 hydrochloric acid and 0.15 ml. of water to the extent of 10 percent, the pH of the 1 percent solution being 2.80; and when the pH of the 1 percent solution was gradually raised by addition of N/10 sodium hydroxide solution, a precipitate formed at pH 5.4. When the base was converted to the hydrochloride and was then regenerated from this salt it melted at 151°-153° C. The hydrochloride of this base melted at 245°-247° C. (dec.). and the cyclohexylsulfamate of this base melted at 163°-166° C. The base formed a grayish-yellowtannate.
The racemic trans product was converted to its hydrobromide, having the molecular formula C19 H27 NO·HBr, which was obtained as white needles which melted at 240°-241° C.
The dextro trans product was converted to its hydrochloride, having the molecular formula C19 H27 NO·HCl, which was obtained as white crystals which melted at 254°-255° C.
The levo trans product was converted to its hydrochloride, having the molecular formula C19 H27 NO·HCl, which was obtained as white crystals which melted at 254°-255° C. (dec.); this hydrochloride was soluble in water to the extent of 5 percent, the pH of a 1 percent aqueous solution being 5.7, a precipitate being formed when the 1 percent aqueous solution was adjusted to 7.0 by addition of N/10 sodium hydroxide solution.
A. A mixture of 9.25 g. of racemic cis 1,2,3,4,5,6-hexahydro-6-ethyl-11-methyl-8-hydroxy-2,6-methano-3-benzazocine, 6.0 g. of 1-bromo-3-methyl-2-butene, 125 ml. of N,N-dimethylformamide, and 5.0 g. of sodium bicarbonate was stirred and refluxed for approximately 41/2 hours. The reaction mixture was then filtered, and the solid collected on the filter was washed with ethanol. The filtrate and the wash liquor were combined and concentrated under reduced pressure. To the resulting residue there was added 50 ml. of diethyl ether, and the mixture was filtered. Approximately 0.6 g. of solid was collected on the filter, and 8.2 g. of brown solid separated from the filtrate and was collected by filtration. These two crops of solid (8.8 g.) were combined, 25 ml. of methanol was added, and the mixture was boiled. Only a small portion of the solid dissolved. This mixture was mixed with 25 ml. of water and chilled. The mixture was filtered to collect 8.3 g. of pale tan solid which melted at 156°-158° C. […]

[2] = test system: analgesic effect of morphine sulfate; assay: Antagonism of morphine analgesia, modified D'Amour-Smith test; conditions: Rattus norvegicus, sc, read-out: dosage of antagonist which reduced the analgesic effect of morphine by approximately 50 per cent
[3] = Support of morphine addiction in stabilized morphine addicts
[4] = test system: analgesic effect of meperidine hydrochloride; assay: Antagonism of meperidine analgesia, modified D'Amour-Smith test; conditions: for maximum degree of antagonism: versus 60 mg/kg. meperidine
[5] = Clinical analgesia in human subjects; type: in vivo
Description: In human subjects, however, the compounds of Formulas I and II are valuable and effective agents for producing analgesia when administered in the general range of about 10 to 500 mg. per 70 kg. of subject weight, the dosage depending of course on the particular compound, the mode of administration, and the like. The following clinical results which were obtained in human subjects are illustrative. For oral administration the free base was used, and for parenteral (usually intramuscular) administration an aqueous solution of the lactate salt was used; the dosages are expressed in each instance in terms of milligrams of base per 70 kilograms of body weight of the human subject.

[6] = D'Amour-Smith test for analgesia in rats; type: in vivo
Description: In tests as in animals as analgesics and as antagonists of strong analgesics, the racemic, dextro, and levo forms of trans 1,2,3,4,5,6-hexahydro-3-(3-methyl-2-butenyl)-6-ethyl-11-methyl-8-hydroxy-2,6-methano-3-benzazocine described in Example 7D above gave results substantially differing from those of the corresponding cis forms and of the related compounds of this invention. Thus, in the analgesic antagonist test versus a 60 mg/kg. dose of meperidine, the maximum degree of antagonism which could be obtained for these three trans forms was: for the racemic trans form, 50 percent antagonism at 0.1 mg/kg.; for the dextro trans form, 30 percent antagonism at 1.25 mg./kg.; and for the levo trans form, 22 percent antagonism at 0.1 mg./kg.

With `CC(C)=CCN1CC[C@@]2(C)c3cc(O)ccc3C[C@@H]1[C@@H]2C` (relative stereo) [4A (base), racemic cis 1,2,3,4,5,6-hexahydro-3-(3-methyl-2-butenyl)-6,11-dimethyl-8-hydroxy-2,6-methano-3-benzazocine] the “pH of the 1 percent solution” value ([1]; 1 percent solution in dilute hydrochloric acid) was 2.80, the “pH at which a precipitate formed” value ([1]; 1 percent solution, addition of N/10 sodium hydroxide) was 5.4 and the solubility ([1]; dilute hydrochloric acid, mixture of 0.35 ml. of N/2 hydrochloric acid and 0.15 ml. of water, read-out: solubility in dilute hydrochloric acid) was 100 mg/mL (≈ 350 mM). For the same compound, the ED50 [2] was 9 mg/kg, the “support of morphine addiction” value [3] was “did not support morphine addiction” and the ED50 ([4]; Rattus norvegicus, sc, read-out: dosage of antagonist which reduced the analgesic effect of meperidine by approximately 50 per cent) was 3.9 mg/kg. The “analgesia in human subjects” value ([5]; orally, 50mg./70 kg. and 100 mg./70 kg.) was “effective and satisfactory analgesia”, the “dose approximately equivalent to 10 mg. of morphine sulfate as an analgesic” value ([5]; parenterally in humans) was roughly 20 mg and the “analgesia in human subjects” value ([5]; parenterally, 10 mg./70 kg. and 60 mg./70 kg.) was “effective and satisfactory analgesia”.

In the case of `CC[C@]12CCN(CC=C(C)C)[C@@H](Cc3ccc(O)cc31)C2C` (relative stereo) [7D (dextro trans), trans 1,2,3,4,5,6-hexahydro-3-(3-methyl-2-butenyl)-6-ethyl-11-methyl-8-hydroxy-2,6-methano-3-benzazocine], the “analgesic activity in D'Amour-Smith test” value ([6]; at 30 mg./kg.) is reported as “inactive”, the “toxicity in D'Amour-Smith test” value ([6]; at 60 mg./kg.) is reported as “toxic” and the “maximum degree of antagonism” value ([4]; at 1.25 mg./kg.) is reported as 30%.

For `CC[C@]12CCN(CC=C(C)C)[C@@H](Cc3ccc(O)cc31)C2C` (relative stereo) [7D (levo trans), trans 1,2,3,4,5,6-hexahydro-3-(3-methyl-2-butenyl)-6-ethyl-11-methyl-8-hydroxy-2,6-methano-3-benzazocine], the “ED50 in D'Amour-Smith test for analgesia” value [6] was 0.94 mg/kg and the “maximum degree of antagonism” value ([4]; at 0.1 mg/kg.) was 22%.

In the case of `CC[C@]12CCN(CC=C(C)C)[C@H](Cc3ccc(O)cc31)[C@H]2C` (relative stereo) [7D (racemic trans), trans 1,2,3,4,5,6-hexahydro-3-(3-methyl-2-butenyl)-6-ethyl-11-methyl-8-hydroxy-2,6-methano-3-benzazocine], the ED50 ([6]; Rattus norvegicus) is reported as 1.4 mg/kg and the “maximum degree of antagonism” value ([4]; at 0.1 mg/kg.) is reported as 50%.
